Measured values: ChEMBL document CHEMBL1201862, “PubChem BioAssay data set” (2004)
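A five-concentration, 48-hour dose response in 96-well plates underlies each endpoint, interpolated linearly between surrounding concentrations. GI50 is the concentration that inhibits growth by half.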 Activity calls are given as the source filed them. Rule as the data show it: active = GI50 up to about 1.1 µM and inactive = higher.

Assays:
Assay in all cases: NCI tumour cell line growth inhibition, 48 h
SNB-75 = tested on: SNB-75
HL-60 = tested on: HL-60
MCF7 = tested on: MCF7
K562 = tested on: K562
A549 = tested on: A549
HT-29 = tested on: HT-29
LOX IMVI = tested on: LOX IMVI
SK-OV-3 = tested on: SK-OV-3
NCI-H226 = tested on: NCI-H226
NCI/ADR-RES = tested on: NCI/ADR-RES
UACC-62 = tested on: UACC-62
CAKI-1 = tested on: CAKI-1
U-251 = tested on: U-251
MOLT-4 = tested on: MOLT-4
SNB-19 = tested on: SNB-19
SN12C = tested on: SN12C
HCT-15 = tested on: HCT-15
MDA-MB-231 = tested on: MDA-MB-231
MDA-MB-435 = tested on: MDA-MB-435
SR = tested on: SR

SMILES | GI50 (SNB-75) | GI50 (HL-60) | GI50 (MCF7) | GI50 (K562) | GI50 (A549) | GI50 (HT-29) | GI50 (LOX IMVI) | GI50 (SK-OV-3) | GI50 (NCI-H226) | GI50 (NCI/ADR-RES) | GI50 (UACC-62) | GI50 (CAKI-1) | GI50 (U-251) | GI50 (MOLT-4) | GI50 (SNB-19) | GI50 (SN12C) | GI50 (HCT-15) [µM] | GI50 (MDA-MB-231) | GI50 (MDA-MB-435) | GI50 (SR)
C=CC1(C)CC(=O)C2(O)C(C)(O1)C(OC(C)=O)C(O)C1C(C)(C)CCC(O)C12C (stereo not drawn) | 52 µM (inactive) | 42.1 µM (inactive) | 81.7 µM (inactive) | > 150 µM (inactive) | > 150 µM (inactive) | 49.8 µM (inactive) | 60.8 µM (inactive) | 29.7 µM (inactive) | 3.41 µM (inactive) | 70.6 µM (inactive) | 69.7 µM (inactive) | 1.37 µM (inactive) | 71 µM (inactive) | 28.6 µM (inactive) | > 150 µM (inactive) | 30.6 µM (inactive) | > 150 |  |  | 
CCCCCCCCCCCCCC(=O)NO | 11.4 µM (inactive) | 1.17 µM (inactive) | 3.8 µM (inactive) | 3.03 µM (inactive) | 9.91 µM (inactive) | 8.99 µM (inactive) | 3.99 µM (inactive) | 30.5 µM (inactive) | 5.05 µM (inactive) |  | 6.68 µM (inactive) | 17.3 µM (inactive) | 10.7 µM (inactive) | 0.492 µM (active) | 23.9 µM (inactive) | 8.55 µM (inactive) | 3.72 | 7.01 µM (inactive) | 25.3 µM (inactive) | 0.518 µM (active)
O=[N+]([O-])c1c(/C=N/Nc2ccccc2)oc(-c2ccc3c(c2)OCO3)c1-c1ccc2c(c1)OCO2 | 23.4 µM (inactive) | 4.57 µM (inactive) |  | 3.06 µM (inactive) | 11 µM (inactive) | 23.8 µM (inactive) | 0.74 µM (active) | 30.5 µM (inactive) | > 100 µM (inactive) |  | 3.19 µM (inactive) | 8.22 µM (inactive) |  |  | 70.3 µM (inactive) | 64.3 µM (inactive) |  |  |  | 1.54 µM (inactive)
COc1ccc(CNc2cnc3cc(N)ccc3n2)cc1 | 52.6 µM (inactive) | 77.1 µM (inactive) |  | > 100 µM (inactive) | > 100 µM (inactive) | > 100 µM (inactive) | > 100 µM (inactive) |  | 80.7 µM (inactive) |  | > 100 µM (inactive) |  | > 100 µM (inactive) | 69 µM (inactive) | 69 µM (inactive) | > 100 µM (inactive) | > 100 |  |  | 55.3 µM (inactive)
N#CC(C#N)=Cc1ccc2c(c1)OC(Cl)O2 (stereo not drawn) | 25.8 µM (inactive) | 6.92 µM (inactive) | 24.4 µM (inactive) | 11.8 µM (inactive) | 38.8 µM (inactive) | 23.8 µM (inactive) | 18.4 µM (inactive) | 28.5 µM (inactive) | 20.2 µM (inactive) | 42.1 µM (inactive) | 22.5 µM (inactive) | > 100 µM (inactive) | 23.2 µM (inactive) | 29.8 µM (inactive) | 26.4 µM (inactive) | 24.9 µM (inactive) | 19.9 |  | 14.3 µM (inactive) | 
Cc1cnc2c(c1)C(=O)C1=C(OC(C)(C)CC1O)C2=O (stereo not drawn) | 14.4 µM (inactive) | 4.45 µM (inactive) |  | 16.8 µM (inactive) | 16.2 µM (inactive) | 20.6 µM (inactive) | 10.5 µM (inactive) | 18.9 µM (inactive) | 20.1 µM (inactive) |  | 3.79 µM (inactive) |  | 15.2 µM (inactive) | 15.9 µM (inactive) | 16.7 µM (inactive) | 15.6 µM (inactive) | 16.7 |  |  | 7.89 µM (inactive)
NC1=C(NC(=O)Cc2ccc(F)cc2)C(=O)c2ccccc2C1=O | 29.2 µM (inactive) | 35.1 µM (inactive) |  | 58.7 µM (inactive) | 85.3 µM (inactive) | > 100 µM (inactive) | 14.4 µM (inactive) | 19.4 µM (inactive) | > 50.4 µM (inactive) |  | 36.4 µM (inactive) | > 100 µM (inactive) | 13.9 µM (inactive) | > 67.9 µM (inactive) | 23.1 µM (inactive) | > 100 µM (inactive) | > 100 |  |  | > 76.4 µM (inactive)
COC(=O)C1Cc2c([nH]c3ccccc23)C(c2ccccc2O)N1 (stereo not drawn) | 88.1 µM (inactive) | 28.5 µM (inactive) |  | 50 µM (inactive) | 43 µM (inactive) | 44.9 µM (inactive) | 60.8 µM (inactive) | > 100 µM (inactive) | > 100 µM (inactive) |  | 35.4 µM (inactive) | 98.6 µM (inactive) | > 100 µM (inactive) | 41.9 µM (inactive) | > 100 µM (inactive) | 55.2 µM (inactive) | 30.5 |  |  | > 100 µM (inactive)
CCC(=O)OC[n+]1ccc2c(C)c3[nH]c4ccccc4c3c(C)c2c1 | 1.29 µM (inactive) | 2.45 µM (inactive) |  | 0.618 µM (active) | 0.272 µM (active) | 0.328 µM (active) | 0.337 µM (active) |  | 0.735 µM (active) |  |  | 1.11 µM (active) | 0.397 µM (active) | 0.0358 µM (active) | 1.6 µM (inactive) | 0.401 µM (active) |  |  |  | 0.0423 µM (active)
O=C(O)c1ccc(C2=Cc3cc(Cl)ccc3OC2)cc1 | 22 µM (inactive) | > 100 µM (inactive) |  | > 100 µM (inactive) | > 100 µM (inactive) | > 100 µM (inactive) | > 100 µM (inactive) | > 100 µM (inactive) | > 100 µM (inactive) |  | > 100 µM (inactive) | > 100 µM (inactive) | > 100 µM (inactive) | > 100 µM (inactive) | > 100 µM (inactive) | > 100 µM (inactive) | > 100 |  |  | > 100 µM (inactive)
CC(C)(C)c1cc(C(=O)O)c2c(c1)C(=O)OC2(c1ccccc1)c1ccccc1C(=O)O (stereo not drawn) | 90.4 µM (inactive) | > 100 µM (inactive) |  | > 100 µM (inactive) | > 100 µM (inactive) | > 100 µM (inactive) | > 100 µM (inactive) | 0.0611 µM (active) | 23.9 µM (inactive) |  | > 100 µM (inactive) | > 100 µM (inactive) | 0.0448 µM (active) | > 100 µM (inactive) | > 100 µM (inactive) | > 100 µM (inactive) | > 100 |  |  | > 100 µM (inactive)
COC(=O)C1=C(C(=O)NNc2ccccc2)N(c2cccnc2Cl)C(c2ccccc2)=CC1c1ccccc1 (stereo not drawn) | > 100 µM (inactive) | 37.2 µM (inactive) | 34.9 µM (inactive) | 20 µM (inactive) | 40.9 µM (inactive) | 58.6 µM (inactive) | 30.5 µM (inactive) | > 100 µM (inactive) | > 100 µM (inactive) |  | 57.7 µM (inactive) | 56.5 µM (inactive) | 47.1 µM (inactive) | 15.2 µM (inactive) | > 100 µM (inactive) | > 100 µM (inactive) | 39.3 | 56.1 µM (inactive) | 29.5 µM (inactive) | 24 µM (inactive)
COc1ccc(NC(=O)Oc2cc(C)c3ccc(=O)cc-3o2)c(OC)c1.COc1ccc(NC(=O)Oc2ccc3c(C)cc(=O)oc3c2)c(OC)c1 |  |  |  |  | > 100 µM (inactive) | > 100 µM (inactive) |  | > 100 µM (inactive) | > 100 µM (inactive) | > 100 µM (inactive) | > 100 µM (inactive) | > 100 µM (inactive) | > 100 µM (inactive) | > 100 µM (inactive) | > 100 µM (inactive) | > 100 µM (inactive) | > 100 | > 100 µM (inactive) | > 100 µM (inactive) | 
C=CCc1ccccc1CC1(OCC)OC(=O)c2ccccc21 (stereo not drawn) | 0.0259 µM (active) |  | > 100 µM (inactive) | 51.8 µM (inactive) | > 100 µM (inactive) | 45.2 µM (inactive) |  | > 100 µM (inactive) | > 100 µM (inactive) |  | > 100 µM (inactive) | > 100 µM (inactive) | > 100 µM (inactive) | 48.8 µM (inactive) | > 100 µM (inactive) | 87.7 µM (inactive) | 42.3 | 72.8 µM (inactive) | 28.8 µM (inactive) | 
Cc1ccccc1-c1c(N)nc(N)nc1C(=O)Nc1nccs1 | > 100 µM (inactive) | > 100 µM (inactive) |  | > 100 µM (inactive) | > 100 µM (inactive) | > 100 µM (inactive) | > 100 µM (inactive) | > 100 µM (inactive) | > 100 µM (inactive) |  | > 100 µM (inactive) | > 100 µM (inactive) | > 100 µM (inactive) | > 100 µM (inactive) | > 100 µM (inactive) | > 100 µM (inactive) | > 100 |  |  | > 100 µM (inactive)
COC(=O)C(C(=O)C(=O)Nc1cccc(C)c1)C1=NC(N)SS1 (stereo not drawn) | > 100 µM (inactive) | > 100 µM (inactive) |  | > 100 µM (inactive) | > 100 µM (inactive) | > 100 µM (inactive) | > 100 µM (inactive) | > 100 µM (inactive) | > 100 µM (inactive) |  | > 100 µM (inactive) | > 100 µM (inactive) | > 100 µM (inactive) | > 100 µM (inactive) | > 100 µM (inactive) | > 100 µM (inactive) | > 100 |  |  | > 100 µM (inactive)
COC(C(=O)NCCCCNC(=O)C(OC)c1ccccc1)c1ccccc1 (stereo not drawn) | > 100 µM (inactive) | > 100 µM (inactive) |  | > 100 µM (inactive) | > 100 µM (inactive) | > 100 µM (inactive) | > 100 µM (inactive) | > 100 µM (inactive) | > 100 µM (inactive) |  | > 100 µM (inactive) | > 100 µM (inactive) | > 100 µM (inactive) | > 100 µM (inactive) | > 100 µM (inactive) | > 100 µM (inactive) | > 100 |  |  | > 100 µM (inactive)
CC12CCC(CC1)C(C)(C)O2 [EUCALYPTOL] | 39.3 µM (inactive) | 17.1 µM (inactive) | 0.644 µM (active) |  |  | 59.4 µM (inactive) | 7.43 µM (inactive) | 57.5 µM (inactive) |  | 45.2 µM (inactive) | 10 µM (inactive) |  | 29.5 µM (inactive) | 13.7 µM (inactive) |  | 7.08 µM (inactive) | 12.1 |  |  | > 100 µM (inactive)
